According to patent US9247745B2, “Substituted pyridazines for controlling invertebrate pests” (BASF SE, priority 2010, dated 2016):

Columns and labels:
Type in all cases: in vivo
[1] = tested on: Vetch aphid (Megoura viciae); assay: Vetch aphid (Megoura viciae) bean leaf disk microtiter plate test; conditions: foliar, 144 h, test solution 2500 mg/L, bean leaf disks, 6 days
Procedure: II.4 Vetch Aphid (Megoura viciae)
The active compounds were formulated in 1:3 (vol:vol) DMSO:water with different concentrations of formulated compounds.
Bean leaf disks were placed into microtiterplates filled with 0.8% agar-agar and 2.5 ppm OPUS™. The leaf disks were sprayed with 2.5 μl of the test solution and 5 to 8 adult aphids were placed into the microtiterplates which were then closed and kept at 23±1° C. and 50±5% relative humidity under fluorescent light for 6 days. Mortality was assessed on the basis of vital, reproduced aphids. Aphid mortality and fecundity was then visually assessed.

[2] = tested on: Cowpea aphid (Aphis craccivora); assay: Cowpea aphid (Aphis craccivora) spray on potted cowpea plants; conditions: assessed after 24, 72, and 120 hours, read-out: mortality in comparison with untreated controls
Procedure: II.3 Cowpea Aphid (Aphis craccivora)
The active compounds were formulated in 50:50 (vol:vol) acetone:water. The test solution was prepared at the day of use.
Potted cowpea plants colonized with 100-150 aphids of various stages were sprayed after the pest population had been recorded. Population reduction was assessed after 24, 72, and 120 hours.

[3] = tested on: Green peach aphid (Myzus persicae, mixed life stages); assay: Green peach aphid (Myzus persicae, mixed life stages) foliar spray on infested bell pepper plants; conditions: 120 h, after 5 days, read-out: mortality in comparison with untreated controls
Procedure: II.2 Green Peach Aphid (Myzus persicae, Mixed Life Stages)
(§1) The active compounds were formulated in cyclohexanone as a 10,000 ppm solution supplied in 1.3 ml ABgene® tubes. These tubes were inserted into an automated electrostatic sprayer equipped with an atomizing nozzle and they served as stock solutions for which lower dilutions were made in 50% acetone:50% water (v/v). A nonionic surfactant (Kinetic®) was included in the solution at a volume of 0.01% (v/v).
Bell pepper plants at the first true-leaf stage were infested prior to treatment by placing heavily infested leaves from the main colony on top of the treatment plants. Aphids were allowed to transfer overnight to accomplish an infestation of 30-50 aphids per plant and the host leaves were removed. The infested plants were then sprayed by an automated electrostatic plant sprayer equipped with an atomizing spray nozzle. The plants were dried in the sprayer fume hood, removed, and then maintained in a growth room under fluorescent lighting in a 24-hr photoperiod at 25° C. and 20-40% relative humidity. Aphid mortality on the treated plants, relative to mortality on untreated control plants, was determined after 5 days.

[4] = tested on: green peach aphid (Myzus persicae); assay: Green peach aphid (Myzus persicae) systemic test, artificial diet under membrane; conditions: 72 h, 2500 ppm in aphid diet, 3 days, read-out: mortality in comparison with untreated controls
Text: II.6 Activity Against Green Peach Aphid (Myzus persicae)
For evaluating control of green peach aphid (Myzus persicae) through systemic means the test unit consisted of 96-well-microtiter plates containing liquid artificial diet under an artificial membrane.
The compounds were formulated using a solution containing 75% v/v water and 25% v/v DMSO. Different concentrations of formulated compounds were pipetted into the aphid diet, using a custom built pipetter, at two replications. After application, 5 to 8 adult aphids were placed on the artificial membrane inside the microtiter plate wells. The aphids were then allowed to suck on the treated aphid diet and incubated at about 23+1° C. and about 50+5% relative humidity for 3 days. Aphid mortality and fecundity was then visually assessed.

[5] = tested on: Cotton aphid (Aphis gossypii, mixed life stages); assay: Cotton aphid (Aphis gossypii, mixed life stages) foliar spray on infested cotton plants; conditions: 120 h, after 5 days, read-out: mortality in comparison with untreated controls
Procedure: II.1 Cotton Aphid (Aphis gossypii, Mixed Life Stages)
as §1
Cotton plants at the cotyledon stage were infested with aphids prior to treatment by placing a heavily infested leaf from the main aphid colony on top of each cotyledon. Aphids were allowed to transfer overnight to accomplish an infestation of 80-100 aphids per plant and the host leaf was removed. The infested plants were then sprayed by an automated electrostatic plant sprayer equipped with an atomizing spray nozzle. The plants were dried in the sprayer fume hood, removed from the sprayer, and then maintained in a growth room under fluorescent lighting in a 24-hr photoperiod at 25° C. and 20-40% relative humidity. Aphid mortality on the treated plants, relative to mortality on untreated control plants, was determined after 5 days.

[6] = tested on: Silverleaf whitefly (Bemisia argentifolii, adult); assay: Silverleaf whitefly (Bemisia argentifolii, adult) on sprayed cotton plants; conditions: 72 h, spray on cotton plants, 3 days after treatment, read-out: mortality in comparison with untreated controls
Procedure: II.7 Silverleaf Whitefly (Bemisia argentifolii, Adult)
as §1
Cotton plants at the cotyledon stage (one plant per pot) were sprayed by an automated electrostatic plant sprayer equipped with an atomizing spray nozzle. The plants were dried in the sprayer fume hood and then removed from the sprayer. Each pot was placed into a plastic cup and 10 to 12 whitefly adults (approximately 3-5 days old) were introduced. The insects were collected using an aspirator and 0.6 cm, nontoxic Tygon® tubing (R-3603) connected to a barrier pipette tip. The tip, containing the collected insects, was then gently inserted into the soil containing the treated plant, allowing insects to crawl out of the tip to reach the foliage for feeding. Cups were covered with a reusable screened lid (150-micron mesh polyester screen PeCap from Tetko, Inc.). […] Mortality was assessed 3 days after treatment, compared to untreated control plants.

## Cc1c(C(=O)/N=c2\ccn(C)nc2)cnn1CC(F)(F)F [Compound 7, 5-methyl-1-(2,2,2-trifluoro-ethyl)-1H-pyrazole-4-carboxylic acid [1-methyl-1H-pyridazin-(4E)-ylidene]-amide]
[1]
  mortality at 2500 µg/mL: ≥ 90%
[2]
  mortality at 300 ppm: ≥ 90%
[3]
  mortality at 300 ppm: ≥ 75%
[4]
  mortality at 2500 ppm: 100%
[5]
  mortality at 300 ppm: ≥ 75%
[6]
  mortality at 300 ppm: ≥ 75%
